Values of other authors as cited in patent US6468993B1, “Method for reducing development of osteoporosis” (BioNumerik Pharmaceuticals, Inc., priority 1999, dated 2002).

Assays:
humans = conditions: doses exceeding 40 g/m^2
dogs = conditions: intravenously, doses higher than 3750 mg/kg
mice = conditions: intravenously, doses higher than 3750 mg/kg

| SMILES | accepted oral LD50 | adverse effects after administration (humans) | adverse effects after administration (dogs) | adverse effects after administration (mice) |
| --- | --- | --- | --- | --- |
| [Cl-].[Na+] [common table salt] | 3750 mg/kg |  |  |  |
| O=S(=O)([O-])CCSSCCS(=O)(=O)[O-].[Na+].[Na+] [dimesna, disodium 2,2′-dithiobis ethane sulfonate] |  | no adverse effects | no adverse effects | no adverse effects |
